Here are results for one compound from US20200345795A1, “MODULATION OF INTESTINAL MICROBIOTA IN PRE-DIABETES AND TYPE 2 DIABETES” (Medlab IP Pty Ltd, priority 2017, published 2020).

The assay concerns intestinal microbiota. The assay can be described thus: Faecal microbial profile (16S rRNA gene sequencing, MALDI-TOF) in randomised placebo-controlled trial. In kind it is in vivo, human. The procedure: The study described herein was a pilot, single site, randomised, double blind, placebo-controlled trial. Ethical approval was granted by the Sydney Local Health District Human Research Ethics Committee, RPA Hospital, Sydney, Australia. The study was carried out according to the Declaration of Helsinki, the National Health and Medical Research Council National Statement on Ethical Conduct in Research Involving Humans and the Notes for Guidance on Good Clinical Practice as adopted by the Australian Therapeutic Goods Administration and the International Conference on Harmonisation Good Clinical Practise guidelines. Written informed consent was obtained from participants before enrolment.
The active product administered was a capsule containing 5×10^10 colony forming units (cfu) of a multi-strain probiotic combination of Lactobacillus plantarum, Lactobacillus bulgaricus, Lactobacillus gasseri, Bifidobacterum breve, Bifidobacterium animalis subsp. lactis, Bifidobacterium bifidum, Streptococcus thermophilus and Saccharomyces boulardii. The placebo was a capsule containing 50 mg maltodextrin. The probiotic and placebo capsules were opaque white in colour and looked and smelled identical. […]
Faecal bacterial profiles were determined using the Ion S5 next-generation sequencing platform (Thermo Fisher) and faecal yeasts were identified by matrix-assisted laser desorption ionization time-of-flight mass spectrometry (MALDI-TOF). […] After extraction, DNA was quantified in a Qubit 2.0 Fluorometer (Invitrogen, Thermo Fisher). […] PCR products were quantified and their quality was evaluated by electrophoretic fractionation in 2% agarose gels (E-Gel, EX Agarose Gel, Thermo Fisher). […]

For `CN(C)C(=N)NC(=N)N` [metformin, N,N-dimethylimidodicarbonimidic diamide], for the setting “participants taking vs not taking metformin, p=0.002 (species) and 0.036 (genera)”, the “intestinal microbial community (beta diversity) at species and genera level” value is “differed from those not taking metformin”. For the same compound, the “effect on intestinal microbiota at the family level” value (participants taking vs not taking metformin, p=0.56) is reported as “no effect”. For the same compound, the “relative abundance of Akkermansia municiphila” value (those taking metformin in the placebo group, in contrast to the probiotic group) is listed as “lower relative abundance”.
